Reference: patent publication US20180087023A1, “METHOD OF PRODUCING BIOPRODUCTS” (White Dog Labs, Inc., priority 2015, published 2018)

What was measured:
[1] = Single-stage extraction of 2% aqueous bioproduct solutions with extractant (Examples 1-9); format: physicochemical; details: for Raffinate Bioproduct conc. (%) / Extract Bioproduct conc. (%): 100 g of 2% aqueous solution mixed with 100 g extractant of 80% 1-butene + 20% DME; for Raffinate Bioproduct conc. (%): raffinate phase; for Extract Bioproduct conc. (%): pressure vessel, extract phase; for DC (bioproduct distribution coefficient): extract/raffinate, extractant 80% 1-butene + 20% DME, ambient temperature (Table 1); for Distribution coefficient, 100% DME: extractant 100% DME (Table 2)
Experimental: Extraction of various bioproducts with an extractant composed of 80% 1-butene and 20% dimethylether (DME) 100 grams (g) of aqueous solutions of various bioproducts were prepared. Bioproduct initial concentration was 2%. Each of these bioproduct aqueous solutions was extracted in a pressure vessel by mixing with 100 g of extractant composed of 80% 1-butene (the hydrocarbon) and 20% dimethylether (the oxygenated compound) at ambient temperature. The amount of formed extract and formed raffinate and the concentration (conc.) of the bioproduct in each were determined. Theses concentrations were used to calculate the bioproduct distribution coefficient (DC). Also determined was the concentration of DME in the raffinate. Table 2 compares the found distribution coefficients to those of extracting with an extractant composed of 100% DME.

[2] = Effect of DME/1-butene ratio in the extractant on n-butanol extraction (Example 10); format: physicochemical; details: after extracting 2% n-butanol solution, 1:1 w/w, room temperature
Experimental: Extractant to aqueous solution weight/weight ratio was 1 to 1. Distribution coefficients, extractant concentration in the raffinate and extraction yield (single stage extraction at the selected extractant/aqueous solution weight/weight ratio) were determined and are summarized in Table 3.

Structure (SMILES) | Raffinate Bioproduct conc. (%) ([1]; ambient temperature) | Extract Bioproduct conc. (%) ([1]; ambient temperature) | DC (bioproduct distribution coefficient) [1] | Distribution coefficient, 100% DME [1] | Distribution coefficient, 20% DME + 80% 1-Butene ([1]; extractant 20% DME + 80% 1-butene (Table 2)) | Raffinate DME conc. (%) ([1]; DME in raffinate after extracting each 2% bioproduct solution with 80% 1-butene + 20% DME, ambient temperature) | Wt % Extractant in Raffinate [2] [%]
CCCC(C)=O [2-Pentanone] | 0.22 | 1.89 | 8.45 | 5.82 |  |  | 
CCCC=O [Butanal] | 0.26 | 1.85 | 7.16 | 5.11 |  |  | 
O=Cc1ccco1 [Furfural] | 0.46 | 0.162 | 3.54 | 3.79 |  |  | 
CCCC(=O)OC [Methyl Butyrate] | 0.034 | 2.12 | 61.1 | 20.73 | 61.14 |  | 
O=C(O)CCCC(=O)O [Glutaric Acid] | 1.37 | 0.56 | 0.43 | 1.88 |  |  | 
O=C1CCCO1 [Gamma Butyrolactone] | 0.37 | 0.172 | 4.63 | 3.14 |  |  | 
O=C(O)CCC(=O)O [Succinic Acid] | 1.66 | 0.22 | 0.13 | 1.01 |  |  | 
CCC(=O)O [Propionic Acid] | 0.92 | 1.09 | 1.18 | 2.27 |  |  | 
COC [DME, dimethylether, reference compound] |  |  |  |  |  | 4.5 | 31.0
